{
  "source": "patent US20170349879A1",
  "about": "“METHOD FOR CULTURING NORMAL CELLS AND ODONTOMA CELLS CONTAINED IN ORAL TISSUE” (CHIBA UNIVERSITY, priority 2014, published 2017)",
  "type_in_all_cases": "cell-based, human",
  "key": {"[1]": {"tested_on": "odontoma cells", "assay": "Cell culture of odontoma cells using a Rho kinase inhibitor (cell morphology)", "details": "inhibitor-containing medium (10 μM); passage 5 with inhibitor vs passage 0 without; FIG. 11", "protocol": "(§1) Odontoma cells, oral mucosal epithelial cells, fibroblasts, and cancer-associated fibroblasts (CAFs) (i) Patient-derived cells for use as a source material were taken in a required amount as described above. (ii) The cells were washed three times with phosphate-buffered physiological saline (PBS) (supplemented with 10 units/ml of penicillin and 100 μg/ml of streptomycin: Sigma-Aldrich). (iii) The cells were cut into small pieces with sterilized iris scissors and a surgical knife (No. 11). (iv) After addition of trypsin (TrypLE Select Enzyme, Gibco, Code No. A12177-01), the cells were shaken at 37° C. for 30 minutes. (v) The cells were mixed with Dulbecco's modified Eagle medium (DMEM: Sigma-Aldrich) (supplemented with 10% fetal bovine serum: Nichirei Bioscience Inc., Japan, 10 units/ml of penicillin and 100 μg/ml of streptomycin), and centrifugation (at 1000 rpm for 5 minutes) was repeated three times. (vi) The cells were mixed with DMEM (supplemented with 10% fetal bovine serum, 10 units/ml of penicillin, 100 μg/ml of streptomycin, 10 μM of the Rock kinase inhibitor and 0.3 μM of L-ascorbic acid 2-phosphate: Sigma-Aldrich) (DMEM+) and then seeded into collagen type I-coated cell culture dishes (IWAKI). (vii) The cells were washed with PBS once every three days to replace the above medium. (viii) The cultured cells were subcultured at 80% confluency. […]"}, "[2]": {"tested_on": "fibroblasts", "assay": "Cell culture of fibroblasts using a Rho kinase inhibitor (cell morphology)", "details": "inhibitor-containing medium (10 μM); passage 7 with inhibitor vs passage 2 without; FIG. 13", "protocol": "as §1"}, "[3]": {"tested_on": "telomerase reverse transcriptase (TERT)", "assay": "Quantitative RT-PCR of TERT (immortalization) in salivary gland cells", "details": "salivary gland cells in Rock inhibitor-containing medium; FIG. 6B", "protocol": "Primary cultured salivary gland cells were cultured in a medium containing a Rock inhibitor and analyzed for their proliferation by Western blotting of proliferating cell nuclear antigen (PCNA: Santa Cruz) and for their apoptosis by Western blotting of caspase-3 (CST). For analysis of their immortalization, the expression of telomerase reverse transcriptase (TERT) was analyzed by quantitative RT-PCR assay. Quantitative RT-PCR of TERT was conducted in the same manner as shown in (2.1) above. The primers used are as shown below. The universal probe used was #19."}, "[4]": {"tested_on": "salivary gland cells", "assay": "Primary culture and subculture of salivary gland cells using a Rock inhibitor (cell morphology)", "details": "Rock inhibitor-containing medium (10 μM), vs standard medium; FIG. 1", "protocol": "as §1, with “(i)” for “Odontoma cells, oral mucosal epithelial cells, fibroblasts, and cancer-associated fibroblasts (CAFs) (i)”, “Patient-derived salivary gland” for “Patient-derived”, “from the labial glands of each patient.” for “as described above.”, “1-coated” for “I-coated”, “(i)” for “(viii)”, “confluency. The cells were washed three times with phosphate-buffered physiological saline.” for “confluency.”"}},
  "data": [
    {"smiles": "CC(N)[C@H]1CC[C@H](C(=O)Nc2ccncc2)CC1", "note": "(stereo partly drawn) [Rock inhibitor, (R)-(+)-trans-N-(4-pyridyl)-4-(1-aminoethyl)-cyclohexanecarboxamide]", "values": [
      {"measurement": "cell morphology of odontoma cells on repeated subculture", "setting": "[1]", "value": "maintain their cell morphology even when repeatedly subcultured"},
      {"measurement": "cell morphology of fibroblasts on repeated subculture", "setting": "[2]", "value": "maintain their cell morphology even when repeatedly subcultured"},
      {"measurement": "TERT expression", "setting": "[3]", "value": "no difference was also observed"},
      {"measurement": "cell morphology of salivary gland cells on repeated subculture", "setting": "[4]", "value": "maintain their cell morphology arranged in a cobblestone pattern even when repeatedly subcultured"}
    ]}
  ]
}
